# Assays:
# ISC-enriched organoids [1] = test: Secondary (validation) screen, 384-well 2.5-D, ENR+CD 6 days, n=8 wells, vs ENR+CD+DMSO control: ATP (CTG); type: cell-based, murine
# Method: (§1) Drugs were tested at a narrowed dose range around each treatment's identified optimal dose from the primary screen (4× below, 2× above and below).
# (§2) High-throughput screening.
# (§3) Secondary lysozyme secretion assay screen. Confirmatory secondary screening with primary hits was performed using the above 384-well plate method. The screen was conducted with 4-plate replicates with a base media of ENR+CD. Media was supplemented with compound at day 0 and day 3 (n=8 well replicates per dose) at four different doses: two-fold above, two-fold below, and four-fold below the optimal final dose for each respective treatment. Additionally, each plate carried a large number of ENR+DMSO or ENR+CD+DMSO (vehicle) control wells (n=100 for ATP, and n=25 for LYZ.NS and LYZ.S) for robust normalization. ATP, non-stimulated lysozyme activity and CCh-stimulated lysozyme activity was again measured and the collected data was again processed in a custom R-script, per primary screen with slight modification. Values were log10 transformed, and a plate-wise FC was calculated for each well based on the median value of ENR+CD+DMSO (vehicle) control wells to normalize plate to plate variability.
# ISC-enriched organoids [2] = test: Secondary (validation) screen, 384-well 2.5-D, ENR+CD 6 days, n=8 wells, vs ENR+CD+DMSO control: basal lysozyme secretion (LYZ.NS); type: cell-based, murine
# Method: as §1, §2, §3
# ISC-enriched organoids [3] = test: Secondary (validation) screen, 384-well 2.5-D, ENR+CD 6 days, n=8 wells, vs ENR+CD+DMSO control: carbachol-induced lysozyme secretion (LYZ.S); type: cell-based, murine
# Method: as §1, §2, §3
# ISC-enriched organoids [4] = test: Primary screen, 384-well 2.5-D organoid differentiation (ENR+CD, 6 days, Target Selective Inhibitor Library, vs whole-plate median): ATP (CellTiter-Glo 3D, CTG); conditions: for Z.CTG: standard z score of FC; for Z.CTG (standard z score): primary screen
smiles,measurement,setting,value
CC(C)(C)NC(=O)[C@H]1CC[C@H]2[C@@H]3CC[C@H]4NC(=O)C=C[C@]4(C)[C@H]3CC[C@]12C [Finasteride],Z.CTG,ISC-enriched organoids [1]; Dose 0.02 uM,0.596
same,repSSMD.CTG,ISC-enriched organoids [1]; Dose 0.02 uM,0.358
same,Z.CTG,ISC-enriched organoids [1]; Dose 0.04 uM,−1.623
same,repSSMD.CTG,ISC-enriched organoids [1]; Dose 0.04 uM,−0.994
same,Z.CTG,ISC-enriched organoids [1]; dose 0.08 uM,−0.099
same,repSSMD.CTG,ISC-enriched organoids [1]; dose 0.08 uM,−0.083
same,Z.LYZ.NS,ISC-enriched organoids [2]; Dose 0.02 uM,0.445
same,repSSMD.LYZ.NS,ISC-enriched organoids [2]; Dose 0.02 uM,0.362
same,Z.LYZ.NS,ISC-enriched organoids [2]; Dose 0.04 uM,−1.510
same,repSSMD.LYZ.NS,ISC-enriched organoids [2]; Dose 0.04 uM,−2.570
same,Z.LYZ.NS,ISC-enriched organoids [2]; dose 0.08 uM,−1.522
same,repSSMD.LYZ.NS,ISC-enriched organoids [2]; dose 0.08 uM,−2.177
same,Z.LYZ.S,ISC-enriched organoids [3]; Dose 0.02 uM,−0.147
same,repSSMD.LYZ.S,ISC-enriched organoids [3]; Dose 0.02 uM,−0.197
same,Z.LYZ.S,ISC-enriched organoids [3]; Dose 0.04 uM,−1.996
same,repSSMD.LYZ.S,ISC-enriched organoids [3]; Dose 0.04 uM,−3.825
same,Z.LYZ.S,ISC-enriched organoids [3]; dose 0.08 uM,−1.859
same,repSSMD.LYZ.S,ISC-enriched organoids [3]; dose 0.08 uM,−2.574
same,Z.CTG,ISC-enriched organoids [4]; Dose 0.08 uM,0.360
same,Z.CTG,ISC-enriched organoids [4]; Dose 0.40 uM,−0.092
same,Z.CTG,ISC-enriched organoids [4]; Dose 2.00 uM,0.174
same,Z.CTG,ISC-enriched organoids [4]; Dose 10.00 uM,−0.097
CCOc1ccc(Cc2cc([C@@H]3O[C@H](CO)[C@@H](O)[C@H](O)[C@H]3O)ccc2Cl)cc1 [Dapagliflozin],Z.CTG,ISC-enriched organoids [1]; Dose 0.02 uM,0.770
same,repSSMD.CTG,ISC-enriched organoids [1]; Dose 0.02 uM,0.643
same,Z.CTG,ISC-enriched organoids [1]; Dose 0.04 uM,1.569
same,repSSMD.CTG,ISC-enriched organoids [1]; Dose 0.04 uM,0.979
same,Z.CTG,ISC-enriched organoids [1]; dose 0.08 uM,1.346
same,repSSMD.CTG,ISC-enriched organoids [1]; dose 0.08 uM,0.777
same,Z.LYZ.NS,ISC-enriched organoids [2]; Dose 0.02 uM,0.173
same,repSSMD.LYZ.NS,ISC-enriched organoids [2]; Dose 0.02 uM,0.231
same,Z.LYZ.NS,ISC-enriched organoids [2]; Dose 0.04 uM,1.197
same,repSSMD.LYZ.NS,ISC-enriched organoids [2]; Dose 0.04 uM,1.267
same,Z.LYZ.NS,ISC-enriched organoids [2]; dose 0.08 uM,0.462
same,repSSMD.LYZ.NS,ISC-enriched organoids [2]; dose 0.08 uM,0.537
same,Z.LYZ.S,ISC-enriched organoids [3]; Dose 0.02 uM,−0.144
same,repSSMD.LYZ.S,ISC-enriched organoids [3]; Dose 0.02 uM,−0.225
same,Z.LYZ.S,ISC-enriched organoids [3]; Dose 0.04 uM,0.528
same,repSSMD.LYZ.S,ISC-enriched organoids [3]; Dose 0.04 uM,0.751
same,Z.LYZ.S,ISC-enriched organoids [3]; dose 0.08 uM,0.530
same,repSSMD.LYZ.S,ISC-enriched organoids [3]; dose 0.08 uM,0.879
same,Z.CTG,ISC-enriched organoids [4]; Dose 0.08 uM,0.980
same,Z.CTG,ISC-enriched organoids [4]; Dose 0.40 uM,0.607
same,Z.CTG,ISC-enriched organoids [4]; Dose 2.00 uM,0.699
same,Z.CTG,ISC-enriched organoids [4]; Dose 10.00 uM,0.719
"CCc1c(C(=O)C(N)=O)c2c(OCC(=O)O)cccc2n1Cc1ccccc1 [Varespladib (LY315920), Varespladib]",Z.CTG,ISC-enriched organoids [1]; Dose 0.02 uM,0.244
same,repSSMD.CTG,ISC-enriched organoids [1]; Dose 0.02 uM,0.187
same,Z.CTG,ISC-enriched organoids [1]; Dose 0.04 uM,1.019
same,repSSMD.CTG,ISC-enriched organoids [1]; Dose 0.04 uM,0.518
same,Z.CTG,ISC-enriched organoids [1]; dose 0.08 uM,1.862
same,repSSMD.CTG,ISC-enriched organoids [1]; dose 0.08 uM,1.114
same,Z.LYZ.NS,ISC-enriched organoids [2]; Dose 0.02 uM,−0.723
same,repSSMD.LYZ.NS,ISC-enriched organoids [2]; Dose 0.02 uM,−0.763
same,Z.LYZ.NS,ISC-enriched organoids [2]; Dose 0.04 uM,0.123
same,repSSMD.LYZ.NS,ISC-enriched organoids [2]; Dose 0.04 uM,0.213
same,Z.LYZ.NS,ISC-enriched organoids [2]; dose 0.08 uM,0.718
same,repSSMD.LYZ.NS,ISC-enriched organoids [2]; dose 0.08 uM,1.251
same,Z.LYZ.S,ISC-enriched organoids [3]; Dose 0.02 uM,−1.057
same,repSSMD.LYZ.S,ISC-enriched organoids [3]; Dose 0.02 uM,−1.652
same,Z.LYZ.S,ISC-enriched organoids [3]; Dose 0.04 uM,−0.339
same,repSSMD.LYZ.S,ISC-enriched organoids [3]; Dose 0.04 uM,−0.641
same,Z.LYZ.S,ISC-enriched organoids [3]; dose 0.08 uM,0.497
same,repSSMD.LYZ.S,ISC-enriched organoids [3]; dose 0.08 uM,0.838
COc1ccc(C2CNC(=O)C2)cc1OC1CCCC1 (stereo not drawn) [Rolipram],Z.CTG,ISC-enriched organoids [1]; Dose 0.50 uM,0.477
same,repSSMD.CTG,ISC-enriched organoids [1]; Dose 0.50 uM,0.368
same,Z.CTG,ISC-enriched organoids [1]; Dose 1.00 uM,1.198
same,repSSMD.CTG,ISC-enriched organoids [1]; Dose 1.00 uM,0.832
same,Z.CTG,ISC-enriched organoids [1]; Dose 4.00 uM,0.583
same,repSSMD.CTG,ISC-enriched organoids [1]; Dose 4.00 uM,0.447
same,Z.CTG,ISC-enriched organoids [1]; dose 2.00 uM,1.819
same,repSSMD.CTG,ISC-enriched organoids [1]; dose 2.00 uM,1.420
same,Z.LYZ.NS,ISC-enriched organoids [2]; Dose 0.50 uM,−0.342
same,repSSMD.LYZ.NS,ISC-enriched organoids [2]; Dose 0.50 uM,−0.478
same,Z.LYZ.NS,ISC-enriched organoids [2]; Dose 1.00 uM,1.213
same,repSSMD.LYZ.NS,ISC-enriched organoids [2]; Dose 1.00 uM,1.715
same,Z.LYZ.NS,ISC-enriched organoids [2]; Dose 4.00 uM,−0.407
same,repSSMD.LYZ.NS,ISC-enriched organoids [2]; Dose 4.00 uM,−0.543
same,Z.LYZ.NS,ISC-enriched organoids [2]; dose 2.00 uM,0.793
same,repSSMD.LYZ.NS,ISC-enriched organoids [2]; dose 2.00 uM,0.950
same,Z.LYZ.S,ISC-enriched organoids [3]; Dose 0.50 uM,−0.631
same,repSSMD.LYZ.S,ISC-enriched organoids [3]; Dose 0.50 uM,−0.936
same,Z.LYZ.S,ISC-enriched organoids [3]; Dose 1.00 uM,0.801
same,repSSMD.LYZ.S,ISC-enriched organoids [3]; Dose 1.00 uM,1.107
same,Z.LYZ.S,ISC-enriched organoids [3]; Dose 4.00 uM,−0.543
same,repSSMD.LYZ.S,ISC-enriched organoids [3]; Dose 4.00 uM,−0.736
same,Z.LYZ.S,ISC-enriched organoids [3]; dose 2.00 uM,0.227
same,repSSMD.LYZ.S,ISC-enriched organoids [3]; dose 2.00 uM,0.169
same,Z.CTG (standard z score),ISC-enriched organoids [4]; Dose 0.08 uM,0.850
same,Z.CTG (standard z score),ISC-enriched organoids [4]; Dose 0.40 uM,0.370
same,Z.CTG (standard z score),ISC-enriched organoids [4]; Dose 2.00 uM,0.945
same,Z.CTG (standard z score),ISC-enriched organoids [4]; Dose 10.00 uM,0.714
